Results as given in ChEMBL document CHEMBL1629456, “ApoA-I mimetic peptides promote pre-β HDL formation in vivo causing remodeling of HDL and triglyceride accumulation at higher dose” (Bioorg Med Chem, 2010).
Where a SMILES comes first, the peptide text is derived from it. [ ]: non-standard residue; d: D form. Ala(5-hexenyl) = C=CCCCCC[C@H](N)C(=O)O; dNle(6-vinyl) = C=CCCCC[C@@H](N)C(=O)O; Gly(octyl) = CCCCCCCC[C@H](N)C(=O)O

Molecular target: Phospholipid-transporting ATPase ABCA1 (Mus musculus, UniProt P41233)
Test: Induction of ABCA1-mediated [3H]cholesterol efflux in mouse RAW 264.7 macrophages after 24 hrs

Phospholipid-transporting ATPase ABCA1, sequence (P41233 whole entry): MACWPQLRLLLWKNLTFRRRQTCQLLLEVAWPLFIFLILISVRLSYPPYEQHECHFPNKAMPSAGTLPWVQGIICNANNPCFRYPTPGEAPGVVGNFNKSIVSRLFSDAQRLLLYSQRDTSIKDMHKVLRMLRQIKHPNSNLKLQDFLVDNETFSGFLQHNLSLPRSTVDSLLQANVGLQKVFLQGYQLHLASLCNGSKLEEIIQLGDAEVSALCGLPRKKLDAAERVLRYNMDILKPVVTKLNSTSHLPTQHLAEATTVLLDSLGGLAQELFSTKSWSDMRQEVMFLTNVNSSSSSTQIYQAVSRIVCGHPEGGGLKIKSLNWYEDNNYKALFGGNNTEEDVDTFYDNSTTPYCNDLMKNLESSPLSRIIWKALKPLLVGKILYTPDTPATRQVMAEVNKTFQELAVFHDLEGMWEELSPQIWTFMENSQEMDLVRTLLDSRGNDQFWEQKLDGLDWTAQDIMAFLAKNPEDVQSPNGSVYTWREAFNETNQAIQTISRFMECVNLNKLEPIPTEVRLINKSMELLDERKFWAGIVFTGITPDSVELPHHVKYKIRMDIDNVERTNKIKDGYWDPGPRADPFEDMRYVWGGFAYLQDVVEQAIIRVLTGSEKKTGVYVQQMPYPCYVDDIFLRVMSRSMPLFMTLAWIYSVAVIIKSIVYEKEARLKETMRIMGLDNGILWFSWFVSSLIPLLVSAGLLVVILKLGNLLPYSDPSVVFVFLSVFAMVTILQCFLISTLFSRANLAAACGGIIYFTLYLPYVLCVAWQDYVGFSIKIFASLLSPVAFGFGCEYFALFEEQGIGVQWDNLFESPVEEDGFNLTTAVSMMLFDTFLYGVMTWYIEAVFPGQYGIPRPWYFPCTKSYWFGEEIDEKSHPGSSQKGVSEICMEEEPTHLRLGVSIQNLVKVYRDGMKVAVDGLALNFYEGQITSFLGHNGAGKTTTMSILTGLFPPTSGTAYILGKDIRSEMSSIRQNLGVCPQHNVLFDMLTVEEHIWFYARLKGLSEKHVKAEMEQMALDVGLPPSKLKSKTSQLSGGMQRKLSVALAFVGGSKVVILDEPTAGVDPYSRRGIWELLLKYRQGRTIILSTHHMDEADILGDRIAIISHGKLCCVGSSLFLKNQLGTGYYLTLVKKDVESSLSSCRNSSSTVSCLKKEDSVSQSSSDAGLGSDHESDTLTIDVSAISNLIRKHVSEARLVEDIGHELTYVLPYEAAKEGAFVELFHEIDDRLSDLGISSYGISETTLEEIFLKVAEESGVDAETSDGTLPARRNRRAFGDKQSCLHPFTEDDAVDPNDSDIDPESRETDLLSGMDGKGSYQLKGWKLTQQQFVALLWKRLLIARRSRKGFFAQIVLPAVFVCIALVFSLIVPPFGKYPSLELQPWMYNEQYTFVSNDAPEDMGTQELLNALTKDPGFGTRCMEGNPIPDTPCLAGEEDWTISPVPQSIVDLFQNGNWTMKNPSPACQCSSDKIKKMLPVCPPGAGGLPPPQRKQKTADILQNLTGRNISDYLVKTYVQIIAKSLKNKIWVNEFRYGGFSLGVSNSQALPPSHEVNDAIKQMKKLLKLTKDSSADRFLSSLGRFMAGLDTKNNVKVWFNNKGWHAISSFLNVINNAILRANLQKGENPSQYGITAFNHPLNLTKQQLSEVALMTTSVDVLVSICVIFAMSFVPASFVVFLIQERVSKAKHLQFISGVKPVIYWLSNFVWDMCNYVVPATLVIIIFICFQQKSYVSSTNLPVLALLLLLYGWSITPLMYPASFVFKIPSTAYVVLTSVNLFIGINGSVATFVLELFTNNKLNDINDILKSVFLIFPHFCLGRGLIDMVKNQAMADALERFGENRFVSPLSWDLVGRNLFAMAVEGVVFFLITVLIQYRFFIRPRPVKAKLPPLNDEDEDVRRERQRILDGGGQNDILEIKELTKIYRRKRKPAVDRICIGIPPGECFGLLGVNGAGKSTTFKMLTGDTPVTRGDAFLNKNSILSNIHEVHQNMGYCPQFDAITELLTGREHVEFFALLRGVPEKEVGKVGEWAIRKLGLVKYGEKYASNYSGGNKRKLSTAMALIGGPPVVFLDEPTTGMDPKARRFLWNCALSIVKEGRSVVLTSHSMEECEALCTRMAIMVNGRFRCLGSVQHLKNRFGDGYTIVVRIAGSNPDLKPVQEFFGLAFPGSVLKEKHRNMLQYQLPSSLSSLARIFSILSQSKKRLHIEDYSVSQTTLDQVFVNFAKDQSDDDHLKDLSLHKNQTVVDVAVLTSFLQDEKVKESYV

Row | Compound | EC50 [µM]
1 | C=CCCCC[C@@H](NC(=O)[C@H](CCC(=O)O)NC(=O)[C@H](CC(N)=O)NC(=O)[C@H](CC(C)C)NC(=O)[C@H](CCCCN)NC(=O)[C@H](CCC(=O)O)NC(=O)[C@H](CCCN=C(N)N)NC(=O)[C@H](Cc1ccccc1)NC(=O)[C@H](CCC(=O)O)NC(=O)[C@H](CC(=O)O)NC(=O)[C@H](CC(C)C)NC(=O)[C@@H](NC(=O)[C@@H]1CCCN1C(C)=O)C(C)C)C(=O)N[C@@H](CC(C)C)C(=O)N[C@@H](CCC(=O)O)C(=O)N[C@@H](C)C(=O)N[C@@H](CC(C)C)C(=O)N[C@@H](CCCCN)C(=O)N[C@@H](CCC(N)=O)C(=O)N[C@@H](CCCCN)C(=O)N[C@@H](CC(C)C)C(=O)N[C@@H](CCCCN)C(N)=O (Ac-PVLDEFREKLNE[dNle(6-vinyl)]LEALKQKLK-NH2) | 31
2 | C=CCCCCC[C@@H](NC(=O)[C@H](CCCCN)NC(=O)[C@H](CCC(N)=O)NC(=O)[C@H](CCCCN)NC(=O)[C@H](CC(C)C)NC(=O)[C@H](C)NC(=O)[C@H](CCC(=O)O)NC(=O)[C@H](CC(C)C)NC(=O)[C@H](CCC(=O)O)NC(=O)[C@H](CCC(=O)O)NC(=O)[C@H](CC(N)=O)NC(=O)[C@H](CC(C)C)NC(=O)[C@H](CCCCN)NC(=O)[C@H](CCC(=O)O)NC(=O)[C@H](CCCNC(=N)N)NC(=O)[C@H](Cc1ccccc1)NC(=O)[C@H](CCC(=O)O)NC(=O)[C@H](CC(=O)O)NC(=O)[C@H](CC(C)C)NC(=O)[C@@H](NC(=O)[C@@H]1CCCN1C(C)=O)C(C)C)C(=O)N[C@@H](CCCCN)C(N)=O | > 100
3 | C=CCCCCC[C@H](NC(=O)[C@H](CCC(=O)O)NC(=O)[C@H](CCCN=C(N)N)NC(=O)[C@H](Cc1ccccc1)NC(=O)[C@H](CCC(=O)O)NC(=O)[C@H](CC(=O)O)NC(=O)[C@H](CC(C)C)NC(=O)[C@@H](NC(=O)[C@@H]1CCCN1C(C)=O)C(C)C)C(=O)N[C@@H](CC(C)C)C(=O)N[C@@H](CC(N)=O)C(=O)N[C@@H](CCC(=O)O)C(=O)N[C@@H](CCC(=O)O)C(=O)N[C@@H](CC(C)C)C(=O)N[C@@H](CCC(=O)O)C(=O)N[C@@H](C)C(=O)N[C@@H](CC(C)C)C(=O)N[C@@H](CCCCN)C(=O)N[C@@H](CCC(N)=O)C(=O)N[C@@H](CCCCN)C(=O)N[C@@H](CC(C)C)C(=O)N[C@@H](CCCCN)C(N)=O | > 100
4 | C=CCCCC[C@@H](NC(=O)[C@H](CCC(=O)O)NC(=O)[C@H](CC(=O)O)NC(=O)[C@H](CC(C)C)NC(=O)[C@@H](NC(=O)[C@@H]1CCCN1C(C)=O)C(C)C)C(=O)N[C@@H](CCCN=C(N)N)C(=O)N[C@@H](CCC(=O)O)C(=O)N[C@@H](CCCCN)C(=O)N[C@@H](CC(C)C)C(=O)N[C@@H](CC(N)=O)C(=O)N[C@@H](CCC(=O)O)C(=O)N[C@@H](CCC(=O)O)C(=O)N[C@@H](CC(C)C)C(=O)N[C@@H](CCC(=O)O)C(=O)N[C@@H](C)C(=O)N[C@@H](CC(C)C)C(=O)N[C@@H](CCCCN)C(=O)N[C@@H](CCC(N)=O)C(=O)N[C@@H](CCCCN)C(=O)N[C@@H](CC(C)C)C(=O)N[C@@H](CCCCN)C(N)=O | > 100
5 | C=CCCCC[C@@H](NC(=O)[C@H](CCC(N)=O)NC(=O)[C@H](CCCCN)NC(=O)[C@H](CC(C)C)NC(=O)[C@H](C)NC(=O)[C@H](CCC(=O)O)NC(=O)[C@H](CC(C)C)NC(=O)[C@H](CCC(=O)O)NC(=O)[C@H](CCC(=O)O)NC(=O)[C@H](CC(N)=O)NC(=O)[C@H](CC(C)C)NC(=O)[C@H](CCCCN)NC(=O)[C@H](CCC(=O)O)NC(=O)[C@H](CCCNC(=N)N)NC(=O)[C@H](Cc1ccccc1)NC(=O)[C@H](CCC(=O)O)NC(=O)[C@H](CC(=O)O)NC(=O)[C@H](CC(C)C)NC(=O)[C@@H](NC(=O)[C@@H]1CCCN1C(C)=O)C(C)C)C(=O)N[C@@H](CC(C)C)C(=O)N[C@@H](CCCCN)C(N)=O | > 100
6 | C=CCCCCC[C@@H](NC(=O)[C@H](CCCCN)NC(=O)[C@H](CCC(=O)O)NC(=O)[C@H](CCCN=C(N)N)NC(=O)[C@H](Cc1ccccc1)NC(=O)[C@H](CCC(=O)O)NC(=O)[C@H](CC(=O)O)NC(=O)[C@H](CC(C)C)NC(=O)[C@@H](NC(=O)[C@@H]1CCCN1C(C)=O)C(C)C)C(=O)N[C@@H](CC(N)=O)C(=O)N[C@@H](CCC(=O)O)C(=O)N[C@@H](CCC(=O)O)C(=O)N[C@@H](CC(C)C)C(=O)N[C@@H](CCC(=O)O)C(=O)N[C@@H](C)C(=O)N[C@@H](CC(C)C)C(=O)N[C@@H](CCCCN)C(=O)N[C@@H](CCC(N)=O)C(=O)N[C@@H](CCCCN)C(=O)N[C@@H](CC(C)C)C(=O)N[C@@H](CCCCN)C(N)=O | > 100
7 | C=CCCCCC[C@H](NC(=O)[C@H](CCC(=O)O)NC(=O)[C@H](CC(N)=O)NC(=O)[C@H](CC(C)C)NC(=O)[C@H](CCCCN)NC(=O)[C@H](CCC(=O)O)NC(=O)[C@H](CCCN=C(N)N)NC(=O)[C@H](CCCCCC=C)NC(=O)[C@H](CCC(=O)O)NC(=O)[C@H](CC(=O)O)NC(=O)[C@H](CC(C)C)NC(=O)[C@H](CCCCCC=C)NC(=O)[C@@H]1CCCN1C(C)=O)C(=O)N[C@@H](CC(C)C)C(=O)N[C@@H](CCC(=O)O)C(=O)N[C@@H](C)C(=O)N[C@@H](CC(C)C)C(=O)N[C@@H](CCCCN)C(=O)N[C@@H](CCC(N)=O)C(=O)N[C@@H](CCCCN)C(=O)N[C@@H](CC(C)C)C(=O)N[C@@H](CCCCN)C(N)=O (Ac-P[Ala(5-hexenyl)]LDE[Ala(5-hexenyl)]REKLNE[Ala(5-hexenyl)]LEALKQKLK-NH2) | 1.9
8 | CCCCCCCC[C@H](NC(=O)[C@H](CCC(=O)O)NC(=O)[C@H](CC(N)=O)NC(=O)[C@H](CC(C)C)NC(=O)[C@H](CCCCN)NC(=O)[C@H](CCC(=O)O)NC(=O)[C@H](CCCNC(=N)N)NC(=O)[C@H](CCCCCCCC)NC(=O)[C@H](CCC(=O)O)NC(=O)[C@H](CC(=O)O)NC(=O)[C@H](CC(C)C)NC(=O)[C@@H](NC(=O)[C@@H]1CCCN1C(C)=O)C(C)C)C(=O)N[C@@H](CC(C)C)C(=O)N[C@@H](CCC(=O)O)C(=O)N[C@@H](C)C(=O)N[C@@H](CC(C)C)C(=O)N[C@@H](CCCCN)C(=O)N[C@@H](CCC(N)=O)C(=O)N[C@@H](CCCCN)C(=O)N[C@@H](CC(C)C)C(=O)N[C@@H](CCCCN)C(N)=O (Ac-PVLDE[Gly(octyl)]REKLNE[Gly(octyl)]LEALKQKLK-NH2) | 0.6
9 | C=CCCCCC[C@H](NC(=O)[C@H](CCC(N)=O)NC(=O)[C@H](CCCCN)NC(=O)[C@H](CC(C)C)NC(=O)[C@H](C)NC(=O)[C@H](CCC(=O)O)NC(=O)[C@H](CC(C)C)NC(=O)[C@H](CCC(=O)O)NC(=O)[C@H](CCC(=O)O)NC(=O)[C@H](CC(N)=O)NC(=O)[C@H](CC(C)C)NC(=O)[C@H](CCCCN)NC(=O)[C@H](CCC(=O)O)NC(=O)[C@H](CCCNC(=N)N)NC(=O)[C@H](Cc1ccccc1)NC(=O)[C@H](CCC(=O)O)NC(=O)[C@H](CC(=O)O)NC(=O)[C@H](CC(C)C)NC(=O)[C@@H](NC(=O)[C@@H]1CCCN1C(C)=O)C(C)C)C(=O)N[C@@H](CC(C)C)C(=O)N[C@@H](CCCCN)C(N)=O | > 100
10 | C=CCCCC[C@@H](NC(=O)[C@H](CCC(=O)O)NC(=O)[C@H](CCC(=O)O)NC(=O)[C@H](CC(N)=O)NC(=O)[C@H](CC(C)C)NC(=O)[C@H](CCCCN)NC(=O)[C@H](CCC(=O)O)NC(=O)[C@H](CCCN=C(N)N)NC(=O)[C@H](Cc1ccccc1)NC(=O)[C@H](CCC(=O)O)NC(=O)[C@H](CC(=O)O)NC(=O)[C@H](CC(C)C)NC(=O)[C@@H](NC(=O)[C@@H]1CCCN1C(C)=O)C(C)C)C(=O)N[C@@H](CCC(=O)O)C(=O)N[C@@H](C)C(=O)N[C@@H](CC(C)C)C(=O)N[C@@H](CCCCN)C(=O)N[C@@H](CCC(N)=O)C(=O)N[C@@H](CCCCN)C(=O)N[C@@H](CC(C)C)C(=O)N[C@@H](CCCCN)C(N)=O | > 100
11 | C=CCCCC[C@H](NC(=O)[C@H](CCCCN)NC(=O)[C@H](CCC(=O)O)NC(=O)[C@H](CCCN=C(N)N)NC(=O)[C@H](Cc1ccccc1)NC(=O)[C@H](CCC(=O)O)NC(=O)[C@H](CC(=O)O)NC(=O)[C@H](CC(C)C)NC(=O)[C@@H](NC(=O)[C@@H]1CCCN1C(C)=O)C(C)C)C(=O)N[C@@H](CC(N)=O)C(=O)N[C@@H](CCC(=O)O)C(=O)N[C@@H](CCC(=O)O)C(=O)N[C@@H](CC(C)C)C(=O)N[C@@H](CCC(=O)O)C(=O)N[C@@H](C)C(=O)N[C@@H](CC(C)C)C(=O)N[C@@H](CCCCN)C(=O)N[C@@H](CCC(N)=O)C(=O)N[C@@H](CCCCN)C(=O)N[C@@H](CC(C)C)C(=O)N[C@@H](CCCCN)C(N)=O | > 100
12 | C=CCCCCC[C@H](NC(=O)[C@H](CCC(N)=O)NC(=O)[C@H](CCCCN)NC(=O)[C@H](CC(C)C)NC(=O)[C@H](C)NC(=O)[C@H](CCC(=O)O)NC(=O)[C@H](CC(C)C)NC(=O)[C@H](CCCCCC=C)NC(=O)[C@H](CCC(=O)O)NC(=O)[C@H](CC(N)=O)NC(=O)[C@H](CC(C)C)NC(=O)[C@H](CCCCN)NC(=O)[C@H](CCC(=O)O)NC(=O)[C@H](CCCN=C(N)N)NC(=O)[C@H](Cc1ccccc1)NC(=O)[C@H](CCC(=O)O)NC(=O)[C@H](CC(=O)O)NC(=O)[C@H](CC(C)C)NC(=O)[C@@H](NC(=O)[C@@H]1CCCN1C(C)=O)C(C)C)C(=O)N[C@@H](CC(C)C)C(=O)N[C@@H](CCCCN)C(N)=O (Ac-PVLDEFREKLNE[Ala(5-hexenyl)]LEALKQ[Ala(5-hexenyl)]LK-NH2) | 0.9
13 | C=CCCCCC[C@@H](NC(=O)[C@H](CCC(N)=O)NC(=O)[C@H](CCCCN)NC(=O)[C@H](CC(C)C)NC(=O)[C@H](C)NC(=O)[C@H](CCC(=O)O)NC(=O)[C@H](CC(C)C)NC(=O)[C@H](CCC(=O)O)NC(=O)[C@H](CCC(=O)O)NC(=O)[C@H](CC(N)=O)NC(=O)[C@H](CC(C)C)NC(=O)[C@H](CCCCN)NC(=O)[C@H](CCC(=O)O)NC(=O)[C@H](CCCN=C(N)N)NC(=O)[C@H](Cc1ccccc1)NC(=O)[C@H](CCC(=O)O)NC(=O)[C@H](CC(=O)O)NC(=O)[C@H](CC(C)C)NC(=O)[C@@H](NC(=O)[C@@H]1CCCN1C(C)=O)C(C)C)C(=O)N[C@@H](CC(C)C)C(=O)N[C@@H](CCCCN)C(N)=O | > 100
14 | C=CCCCCC[C@@H](NC(=O)[C@H](CCC(=O)O)NC(=O)[C@H](CCC(=O)O)NC(=O)[C@H](CC(N)=O)NC(=O)[C@H](CC(C)C)NC(=O)[C@H](CCCCN)NC(=O)[C@H](CCC(=O)O)NC(=O)[C@H](CCCN=C(N)N)NC(=O)[C@H](Cc1ccccc1)NC(=O)[C@H](CCC(=O)O)NC(=O)[C@H](CC(=O)O)NC(=O)[C@H](CC(C)C)NC(=O)[C@@H](NC(=O)[C@@H]1CCCN1C(C)=O)C(C)C)C(=O)N[C@@H](CCC(=O)O)C(=O)N[C@@H](C)C(=O)N[C@@H](CC(C)C)C(=O)N[C@@H](CCCCN)C(=O)N[C@@H](CCC(N)=O)C(=O)N[C@@H](CCCCN)C(=O)N[C@@H](CC(C)C)C(=O)N[C@@H](CCCCN)C(N)=O | > 100
